Data: US10201547B2, “Method of treatment of aggression” (Supernus Pharmaceuticals, Inc., priority 2008, dated 2019)

What was measured:
[1] = biological target: T1, human D5 receptor (Homo sapiens, UniProt P21918); assay: D5(h) displacement (radioligand binding) assay, [3H]SCH 23390, recombinant D5 receptors in GH4 cell line
T1 construct: expressed in transfected cells; host or cells: GH4 cell line
Procedure: A heterologous competition assay was designed for a receptor affinity screening of molindone. Recombinant D5 receptors were expressed in a GH4 cell line and specific binding was characterized by displacement of another molecule with affinity for the D5 receptor (the “ligand”). “Specific binding” refers here to the difference in the binding of the ligand to the receptors in the presence and absence of an excess of the active agent. An initial screen was performed with […] molindone.
The affinity of molindone for the D5 receptor was further characterized by determining the IC50, or concentration that inhibits 50% of control specific binding. For this experiment, a range of molindone concentrations was selected for the ligand blocking assay. The IC50 was determined using non-linear regression analysis of the competition curves using Hill equation curve fitting. The inhibition constants Ki, wherein Ki is defined as the concentration of the competing ligand (molindone) that will bind to half the binding sites at equilibrium in the absence of radioligand or other competitors, were calculated using Cheng Prusoff equation.

[2] = biological target: T2, D4.4 (Homo sapiens, UniProt P21917); assay: D4.4 displacement assay; type: binding; details: concentration 1.0E−05M
T2 sequence (P21917 1-419): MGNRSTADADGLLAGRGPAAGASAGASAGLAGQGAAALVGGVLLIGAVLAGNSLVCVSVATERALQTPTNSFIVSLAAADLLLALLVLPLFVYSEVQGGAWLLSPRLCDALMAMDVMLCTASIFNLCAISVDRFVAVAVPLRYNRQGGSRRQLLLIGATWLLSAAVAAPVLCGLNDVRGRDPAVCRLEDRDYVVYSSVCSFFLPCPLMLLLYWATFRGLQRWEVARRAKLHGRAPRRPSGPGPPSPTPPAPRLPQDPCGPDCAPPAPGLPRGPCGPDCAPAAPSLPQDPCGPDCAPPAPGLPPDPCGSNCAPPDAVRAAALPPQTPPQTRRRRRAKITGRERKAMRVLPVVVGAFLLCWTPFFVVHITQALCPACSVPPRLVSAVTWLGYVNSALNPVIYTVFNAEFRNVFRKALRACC

[3] = biological target: T1, human D5 receptor; assay: D5(h) agonist effect, cAMP HTRF; type: cell-based; details: control 10 μM dopamine
Description: (§1) The final step of the assay was to characterize whether the binding is of an agonist or antagonist nature. For the D5 receptor, this was accomplished through an assay that examined the agonist effect on the D5 receptor, i.e., the generation of cAMP or the blockade of this effect when stimulated by a D5 agonist, dopamine. This was also done with a range of concentrations to determine the relative agonist vs antagonist binding Ki. The EC50 values (concentration producing a half-maximal specific response) and IC50 values (a concentration causing a half-maximal inhibition of the control-specific agonist response) were determined by non-linear regression analysis of the concentration-response curves generated with mean replicate values using Hill equation curve fitting. The apparent dissociation constants for antagonists Kb were calculated using the modified Cheng Prusoff equation.

[4] = biological target: T3, D2S(h) (Homo sapiens, UniProt P14416); assay: D2S(h) displacement (radioligand binding) assay, [3H]spiperone
[5] = Randomized, multicenter, parallel group dose-ranging study in children with ADHD and persistent serious conduct problems; type: in vivo, human; set-up: NCBRF-TIQ Conduct Problem Subscale Score, Visit 12 Mean / Mean Reduction from Baseline in NCBRF-TIQ Conduct Problem Subscale Score: scale not given here; details: for NCBRF-TIQ Conduct Problem Subscale Score, Visit 12 Mean: 6 weeks at target dose
Procedure: Effectiveness, safety and tolerability of molindone was evaluated in a randomized, multicenter, parallel group dose-ranging study in children with ADHD and persistent serious conduct problems. Subjects were randomized based on weight at baseline to 1 of 4 treatment groups. The dosing for subjects with weight of less than 30 kg was initiated at 1.67 mg/day and 3.34 mg/day for subjects weighing 30 kg or more. A titration schedule was followed until the target dose (Treatment group 1, 2, 3 or 4) was reached. Subjects remained at target dose for 6 weeks (Table 9). [table]

[6] = biological target: T3, D2S(h); assay: D2S(h) antagonist effect, cAMP HTRF; type: cell-based
[7] = biological target: T1, human D5 receptor; assay: D5(h) antagonist effect, cAMP HTRF; type: cell-based; details: for Agonist Response % of Control, 1st / Agonist Response % of Control, 2nd / Agonist Response % of Control, Mean: antagonist effect
Description: as §1

[8] = D5(h), test concentration 1.0E−04 M, dopamine 100 nM
[9] = D5(h), test concentration 1.0E−05 M, dopamine 100 nM
[10] = D5(h), test concentration 1.0E−06 M, dopamine 100 nM
[11] = D5(h), test concentration 1.0E−07 M, dopamine 100 nM
[12] = D5(h), test concentration 2.0E−05 M, dopamine 100 nM
[13] = D5(h), test concentration 3.0E−06 M, dopamine 100 nM
[14] = D5(h), test concentration 3.0E−07 M, dopamine 100 nM
[15] = D5(h), test concentration 5.0E−05 M, dopamine 100 nM

T3 sequence (P14416 1-414 isoform P14416-2): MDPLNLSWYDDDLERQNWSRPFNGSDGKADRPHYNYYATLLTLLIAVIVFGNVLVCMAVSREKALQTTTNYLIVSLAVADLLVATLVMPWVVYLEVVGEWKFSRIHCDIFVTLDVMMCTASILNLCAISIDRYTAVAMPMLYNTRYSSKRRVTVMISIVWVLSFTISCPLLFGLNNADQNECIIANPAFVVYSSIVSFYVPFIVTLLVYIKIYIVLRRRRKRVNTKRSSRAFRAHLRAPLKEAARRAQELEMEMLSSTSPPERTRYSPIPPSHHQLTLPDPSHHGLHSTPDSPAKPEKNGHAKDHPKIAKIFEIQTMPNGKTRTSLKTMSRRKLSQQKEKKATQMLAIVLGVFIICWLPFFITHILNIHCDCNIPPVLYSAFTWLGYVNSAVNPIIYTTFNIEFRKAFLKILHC
T1 sequence (P21918 whole entry): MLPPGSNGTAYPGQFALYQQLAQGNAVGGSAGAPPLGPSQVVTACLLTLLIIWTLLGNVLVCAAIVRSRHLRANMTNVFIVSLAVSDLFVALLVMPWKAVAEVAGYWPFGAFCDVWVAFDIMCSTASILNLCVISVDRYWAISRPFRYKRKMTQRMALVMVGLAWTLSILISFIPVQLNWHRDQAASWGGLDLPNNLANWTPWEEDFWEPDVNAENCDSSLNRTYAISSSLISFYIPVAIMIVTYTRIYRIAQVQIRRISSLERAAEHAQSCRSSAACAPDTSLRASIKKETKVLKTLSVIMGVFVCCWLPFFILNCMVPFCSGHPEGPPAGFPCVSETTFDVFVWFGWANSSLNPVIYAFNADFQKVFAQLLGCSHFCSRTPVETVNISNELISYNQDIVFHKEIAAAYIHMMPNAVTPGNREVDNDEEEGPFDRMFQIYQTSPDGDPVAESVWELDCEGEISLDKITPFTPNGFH

CCc1c(C)[nH]c2c1C(=O)C(CN1CCOCC1)CC2 (stereo not drawn) [molindone]
IC50 ([1]; D5 binding): 5200 nM | n(H) ([1]; D5 binding, Hill equation curve fitting): 1.2 | Ki ([1]; D5 receptor): 2400 nM | inhibition at 10 pM ([1]; molindone 10^−5 μM, read-out: inhibition of the SCH23390 binding at the D5 receptor): 59% | % Inhibition of control specific binding [2]: 38% | Agonist Response % of Control, 1st ([3]; test concentration 1.0E−04 M): 1% | Agonist Response % of Control, 2nd ([3]; test concentration 1.0E−04 M): 4% | Agonist Response % of Control, Mean ([3]; test concentration 1.0E−04 M): 2.1% | Agonist Response % of Control, 1st ([3]; test concentration 1.0E−05 M): −1% | Agonist Response % of Control, 2nd ([3]; test concentration 1.0E−05 M): 2% | Agonist Response % of Control, Mean ([3]; test concentration 1.0E−05 M): 0.6% | Agonist Response % of Control, 1st ([3]; test concentration 1.0E−06 M): 0% | Agonist Response % of Control, 2nd ([3]; test concentration 1.0E−06 M): 0% | Agonist Response % of Control, Mean ([3]; test concentration 1.0E−06 M): 0.1% | Agonist Response % of Control, 1st ([3]; test concentration 1.0E−07 M): 2% | Agonist Response % of Control, 2nd ([3]; test concentration 1.0E−07 M): 2% | Agonist Response % of Control, Mean ([3]; test concentration 1.0E−07 M): 2.1% | Agonist Response % of Control, 1st ([3]; test concentration 2.0E−05 M): −2% | Agonist Response % of Control, 2nd ([3]; test concentration 2.0E−05 M): 2% | Agonist Response % of Control, Mean ([3]; test concentration 2.0E−05 M): 0.2% | Agonist Response % of Control, 1st ([3]; test concentration 3.0E−06 M): 3% | Agonist Response % of Control, 2nd ([3]; test concentration 3.0E−06 M): 4% | Agonist Response % of Control, Mean ([3]; test concentration 3.0E−06 M): 3.3% | Agonist Response % of Control, 1st ([3]; test concentration 3.0E−07 M): 4% | Agonist Response % of Control, 2nd ([3]; test concentration 3.0E−07 M): −1% | Agonist Response % of Control, Mean ([3]; test concentration 3.0E−07 M): 1.8% | Agonist Response % of Control, 1st ([3]; test concentration 5.0E−05 M): 1% | Agonist Response % of Control, 2nd ([3]; test concentration 5.0E−05 M): −2% | Agonist Response % of Control, Mean ([3]; test concentration 5.0E−05 M): −0.7% | Ki ([4]; D2s binding, Cheng Prusoff, read-out: K1): 17 nM | n(H) ([4]; D2s binding, Hill equation curve fitting): 1.7 | % Inhibition of control specific binding ([4]; D2s, concentration 1.0E−05M): 98% | NCBRF-TIQ Conduct Problem Subscale Score, Visit 12 Mean ([5]; Treatment 1: 5 mg/day (<30 kg), 10 mg/day (≥30 kg)): 13.40 | Mean Reduction from Baseline in NCBRF-TIQ Conduct Problem Subscale Score ([5]; Treatment 1: 5 mg/day (<30 kg), 10 mg/day (≥30 kg), baseline mean 20.35): 6.95 | NCBRF-TIQ Conduct Problem Subscale Score, Visit 12 Mean ([5]; Treatment 2: 10 mg/day (<30 kg), 20 mg/day (≥30 kg)): 17.00 | Mean Reduction from Baseline in NCBRF-TIQ Conduct Problem Subscale Score ([5]; Treatment 2: 10 mg/day (<30 kg), 20 mg/day (≥30 kg), baseline mean 25.74): 8.74 | NCBRF-TIQ Conduct Problem Subscale Score, Visit 12 Mean ([5]; Treatment 3: 15 mg/day (<30 kg), 30 mg/day (≥30 kg)): 17.79 | Mean Reduction from Baseline in NCBRF-TIQ Conduct Problem Subscale Score ([5]; Treatment 3: 15 mg/day (<30 kg), 30 mg/day (≥30 kg), baseline mean 26.00): 8.21 | NCBRF-TIQ Conduct Problem Subscale Score, Visit 12 Mean ([5]; Treatment 4: 20 mg/day (<30 kg), 40 mg/day (≥30 kg)): 11.65 | Mean Reduction from Baseline in NCBRF-TIQ Conduct Problem Subscale Score ([5]; Treatment 4: 20 mg/day (<30 kg), 40 mg/day (≥30 kg), baseline mean 25.95): 14.30 | Side effects ([5]; all four treatment groups): mild, self-limiting and within the limits of tolerability | discontinuation because of side effects ([5]; all four treatment groups): no subjects discontinued the study because of the side effects | efficacy signal towards reducing Conduct Problem Subscale scores ([5]; children with ADHD and persistent serious conduct problems): statistically significant efficacy signal | IC50 ([6]; dopamine 30 nM): 68 nM | Kb ([6]; modified Cheng Prusoff): 4.7 nM | IC50 ([7]; D5(h), dopamine 100 nM): 5300 nM | Kb ([7]; D5(h), modified Cheng Prusoff): 920 nM | nature of the binding/activity at the D5 receptor (agonist or antagonist) ([7]; D5 receptor, cAMP): specific antagonist activity | Agonist Response % of Control, 1st [7, 8]: 7% | Agonist Response % of Control, 2nd [7, 8]: 4% | Agonist Response % of Control, Mean [7, 8]: 5.6% | Agonist Response % of Control, 1st [7, 9]: 40% | Agonist Response % of Control, 2nd [7, 9]: 36% | Agonist Response % of Control, Mean [7, 9]: 38.4% | Agonist Response % of Control, 1st [7, 10]: 98% | Agonist Response % of Control, 2nd [7, 10]: 95% | Agonist Response % of Control, Mean [7, 10]: 96.4% | Agonist Response % of Control, 1st [7, 11]: 107% | Agonist Response % of Control, 2nd [7, 11]: 115% | Agonist Response % of Control, Mean [7, 11]: 111.0% | Agonist Response % of Control, 1st [7, 12]: 19% | Agonist Response % of Control, 2nd [7, 12]: 20% | Agonist Response % of Control, Mean [7, 12]: 19.6% | Agonist Response % of Control, 1st [7, 13]: 67% | Agonist Response % of Control, 2nd [7, 13]: 66% | Agonist Response % of Control, Mean [7, 13]: 66.7% | Agonist Response % of Control, 1st [7, 14]: 90% | Agonist Response % of Control, 2nd [7, 14]: 95% | Agonist Response % of Control, Mean [7, 14]: 92.9% | Agonist Response % of Control, 1st [7, 15]: 4% | Agonist Response % of Control, 2nd [7, 15]: 11% | Agonist Response % of Control, Mean [7, 15]: 7.3%
